Results as given in article PMC4506568, “Targeting a Dynamic Protein–Protein Interaction: Fragment Screening against the Malaria Myosin A Motor Complex” (Chemmedchem, 2014).

Biological target: T1, PfMTIPΔ60 (Plasmodium falciparum myosin A tail domain interacting protein, residues 61-204) (Plasmodium falciparum, UniProt Q8I4W8)
T1 construct: gene MTIP; residues 61-204 (N- and C-terminal domains, disordered N-terminal extension removed), N-terminal His tag kept, recombinant as previously described; 15N-labelled for NMR; free of myoA tail
T1 sequence (Q8I4W8 entry or part of it, stated change not applied): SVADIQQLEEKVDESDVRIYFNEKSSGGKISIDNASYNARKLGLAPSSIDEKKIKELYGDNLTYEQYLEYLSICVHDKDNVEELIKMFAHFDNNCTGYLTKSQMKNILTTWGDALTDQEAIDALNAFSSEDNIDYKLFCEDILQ
Assay: 1H, […]-HSQC NMR titration
Format: binding

Compound `CN(C)Cc1ccc(CSCCN)o1` [compound 8, fragment 8] has a Kd of 22.5 ± 2.7 mM.
